One may read the IC50 as the concentration needed to halve the response being measured. For orientation: inhibition means the change of the read-out against control, counted positive when it falls. Lower therefore signals little suppression.

The results in this text go back to ChEMBL document CHEMBL1138704, “Farnesyl protein transferase inhibitors targeting the catalytic zinc for enhanced binding” (Bioorg Med Chem Lett, 2004).

Assay [1] can be described thus: Inhibition of [3H]-FPP incorporation into H-ras CVLS by farnesyltransferase.
Assay [2] addresses T1, Protein farnesyltransferase (Homo sapiens) (UniProt P49354+P49356). The experiment in a line: Percent inhibition of [3H]FPP incorporation into H-ras CVLS by farnesyltransferase at 1.1 uM. It is filed as protein-complex assay.
For assay [3], the target named is T1, Protein farnesyltransferase (Homo sapiens). Put plainly: Percent inhibition of [3H]FPP incorporation into H-ras CVLS by farnesyltransferase at 0.4 uM. It is filed as protein-complex assay.
The target is the same in assay [4]. The experiment in a line: Inhibition of [3H]FPP incorporation into H-ras CVLS by farnesyltransferase. It is filed as protein-complex assay.

“And” between values parts separate entries of the source, which are not always exact repeats. Equal values may be shown once.

In the case of `O=C(NCCCn1ccnc1)[C@@H]1CCCCN1C1c2ncc(Br)cc2CCc2cc(Cl)cc(Br)c21` (stereo partly specified), in assay [1], the IC50 is 900 pM and 400 pM.

As to `O=C(NCc1ccncc1)[C@H]1CCCCN1C1c2ccc(Cl)cc2CCc2cc(Br)cnc21` (stereo partly specified), in assay [2], the inhibition is 18% and 27%.

In the case of `NC(=O)N1CCC(CC(=O)N2CCC([C@H]3c4ncc(Br)cc4CCc4cc(Cl)cc(Br)c43)CC2)CC1` [LONAFARNIB], in assay [1], the half-inhibitory concentration (IC50) worked out at 2000 pM.

Take `O=C(NCc1cccnc1)[C@H]1CCCCN1C1c2ccc(Cl)cc2CCc2cc(Br)cnc21` (stereo partly specified): the inhibition in assay [3] is 0.4% and 11%.

As to `O=C(NCc1cccnc1)[C@@H]1CCCCN1C1c2ccc(Cl)cc2CCc2cc(Br)cnc21` (stereo partly specified), the Inhibitory activity in assay [4] is 0.3 µM and 0.16 µM.

For the compound `O=C(NCc1ccncc1)[C@@H]1CCCCN1C1c2ccc(Cl)cc2CCc2cc(Br)cnc21` (stereo partly specified), the inhibition in assay [2] was 0% and 13%.
